# Patent US7067538B2, “MCP-1 receptor antagonists and methods of use thereof” (Warner-Lambert Company, LLC, priority 2002, dated 2006)
# Where two headings read alike, the source gives them in different places.
# Tests used:
# [1] = Pharmacokinetics in rats after intravenous infusion and oral gavage; format: in vivo
# Procedure: The compound of Example 4, 3-[Bis-(4-chloro-phenyl)-methanesulfonyl]-1,1,1-trifluoro-propan-2-one, was administered to rats via a 5-minute intravenous infusion at 0.175 mg/mL (solution in 5% DMA/95% Tris base (50 mM in water)) and oral gavage at 0.35 mg/mL (suspension in 5% (w/v) PEG 200/95% (w/v) methylcellulose (0.5%)). Following intravenous administration of a 0.5 mg/kg dose to rats, the systemic clearance was about 0.06 mL/min/kg and the volume of distribution was about 0.2 L/kg. […] Following a 1 mg/kg oral dose, the compound of Example 4 was absorbed in rats with mean peak plasma levels of 6 μg/mL occurring approximately 2.5 hours after dosing. Based on the ratio of the dose-normalized area under the plasma concentration-time curve from 0 to 96 hour after oral and intravenous doses, the absolute oral bioavailability averaged about 100%. […]
# [2] = Plasma stability in rat plasma and acidified rat plasma (LC/MS); format: in vitro ADME; conditions: 1 μg/mL, 1 hour at room temperature or 37° C.
# Procedure: Plasma stability studies were conducted on (Di-p-tolyl-methanesulfonyl)-acetic acid methyl ester and [bis-(4-chloro-phenyl)-methanesulfonyl]-acetic acid methyl ester. Briefly, these compounds (at a final concentration of 1 μg/mL) were separately inclubated in rat plasma and acidified rat plasma for 1 hour at room temperature or 37° C.
# [3] = tested on: MCP-1 response in THP-1 cells; assay: Calcium flux in THP-1 cells stimulated with human MCP-1 (FLIPR); format: cell-based; conditions: read-out: Calcium Flux IC50
# Procedure: Compounds of were evaluated for their effect on calcium flux using methodology known in the art, e.g., Neote et al., Cell 1993, 72:415–425. Briefly, THP-1 cells were incubated with the fluorescence dye FLUO-4 for 1 hour, the cells were washed after this loading period, resuspended in HANKs buffer, and loaded into a 384-well plate. The cells were then incubated in the presence of a compound of Example 1–12, 14, 18, 22–23, 27–28, 30, or [bis-(4-chloro-phenyl)-methanesulfonyl]-acetic acid methyl ester. After a 30-minute incubation period, the cells were stimulated with 33 nM human MCP-1 and the calcium flux response recorded and quantified with a FLIPR^384® (384-well Fluorometric Imaging Plate Reader) ([…], Sunnyvale, Calif.). The IC50's (μM) of the inhibition of the maximal MCP-1 response are set out in Table 1.
# [4] = target: T1, MCP-1 receptor (300-19 cell membranes) (Homo sapiens, UniProt P41597); assay: Inhibition of binding of 125I-MCP-1 to 300-19 cell membranes
# T1 construct: host or cells: 300-19 cells (membrane preparation)
# T1 sequence (P41597 whole entry): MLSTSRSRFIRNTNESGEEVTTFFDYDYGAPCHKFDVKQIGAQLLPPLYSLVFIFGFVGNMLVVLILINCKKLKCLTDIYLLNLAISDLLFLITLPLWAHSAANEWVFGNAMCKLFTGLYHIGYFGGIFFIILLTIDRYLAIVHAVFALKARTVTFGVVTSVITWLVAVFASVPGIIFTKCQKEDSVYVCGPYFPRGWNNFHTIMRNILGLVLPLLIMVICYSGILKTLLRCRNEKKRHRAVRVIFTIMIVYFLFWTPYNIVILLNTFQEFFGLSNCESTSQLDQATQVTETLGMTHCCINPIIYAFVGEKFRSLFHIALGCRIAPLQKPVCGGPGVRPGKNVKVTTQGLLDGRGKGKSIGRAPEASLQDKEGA
# Procedure: Compounds were also assayed for their ability to inhibit the binding of radiolabeled MCP-1 to cell membranes. The materials and methods are set out below.
# Membrane Preparation. 300-19 cells were harvested by centrifugation and washed with PBS (Dulbecco's phosphate-buffered saline w/o Ca and Mg). Cells were frozen at −80° C. overnight then resuspensed in ice cold lysis buffer (5 mM HEPES, 2 mM EDTA, 10 μg/mL of leupeptin, aprotinin, and chymostatin, and 200 μg/mL PMSF). The cell suspension was centrifuged at 1,000 rpm for 10 minutes and the supernatant was transferred and centrifuged at 14,000 rpm for 45 minutes at 4° C. then discarded. The resulting pellet was resuspended in stock buffer (10 mM HEPES, 300 mM sucrose, 20 μg/mL of leupeptin, aprotinin, and chymostatin, and 200 μg/mL PMSF), aliquoted, and frozen at −80° C. until use. Typical binding assays used 1.0 μg/well protein.
# Prepared membranes were resuspended in binding buffer (50 mM Tris, 10 mM MgCl2, 1 mM EDTA pH 7.4) at 10 μg/mL protein. Membranes (1.0 μg/well) were incubated with ^125I-MCP-1 (0.15 nM) in the absence or presence of unlabeled chemokine (465 nM) or a compound of Examples 1–11, 14, 16, 19, 22, 27–30, 33–34, or [bis-(4-chloro-phenyl)-methanesulfonyl]-acetic acid methyl ester (0.001 μM–40 μM) for 3 hours at room temperature in a 96-well plate (total volume 250 μL). The reaction was terminated by filtration using a 96-well plate harvester (Packard Filtermate 196 Harvester). Filters (Packard GF/C) were prewet with 0.3% PEI containing 0.5% BSA and washed 5 times with wash buffer (DPBS, 0.3 MnCl2, and 0.25% BSA) prior to reaction termination. After terminating the reaction, filters were washed 6 times with wash buffer, and allowed to dry overnight. Scintillation fluid (Packard's Micro Scint 20) was added to each well and radioactivity bound was determined by liquid scintillation spectrometry. Nonspecific binding was determined in the presence of 465 nM unlabeled MCP-1. The IC50's (μM) of the inhibition of the binding of the iodinated MCP-1 are set out in Table 2.
# [5] = 0.5 h, THP-1 cells, 30-minute incubation, stimulated with 33 nM human MCP-1, inhibition of the maximal MCP-1 response
# [6] = 300-19 cell membranes 1.0 μg/well, 125I-MCP-1 0.15 nM, 3 hours at room temperature, read-out: IC50 of the inhibition of the binding of the iodinated MCP-1
SMILES,compound remaining after incubation in plasma [2],"bioavailability ([1]; rat, in vivo) [%]","half-life ([1]; rat, in vivo) [h]",melting point [°C],"IC50 [3, 5] [nM]","IC50 [4, 6] [nM]","mean peak plasma levels ([1]; rat, in vivo, po, 5 mg/kg)","time of peak plasma levels after dosing ([1]; rat, in vivo, po, 5 mg/kg) [min]",also measured
"COC(=O)CS(=O)(=O)C(c1ccc(C)cc1)c1ccc(C)cc1 [(Di-p-tolyl-methanesulfonyl)-acetic acid methyl ester, reference compound]",below the lower limit of quantitation,,,,,,,,"plasma concentrations after intravenous or oral administration ([1]; rats, 1 mg/kg intravenous infusion or 5 mg/kg oral gavage, LC/MS): below the lower limit of quantitation"
"O=C(CS(=O)(=O)C(c1ccc(Cl)cc1)c1ccc(Cl)cc1)C(F)(F)F [Example 4, 3-[Bis-(4-chloro-phenyl)-methanesulfonyl]-1,1,1-trifluoro-propan-2-one]",,~100,~47,60 to 62,495,175,,,"Vd ([1]; rat, in vivo, iv, 0.5 mg/kg): ~0.2 L/kg; clearance ([1]; rat, in vivo, iv, 0.5 mg/kg): ~0.06 mL/min/kg; mean peak plasma levels ([1]; rat, in vivo, po, 1 mg/kg): 6 µg/mL; time of peak plasma levels after dosing ([1]; rat, in vivo, po, 1 mg/kg): approximately 2.5 hours"
"O=C(CF)CS(=O)(=O)C(c1ccc(Cl)cc1)c1ccc(Cl)cc1 [Example 7, 3-[Bis-(4-chloro-phenyl)-methanesulfonyl]-1-fluoro-propan-2-one]",,< 10,1.5,55 to 58,423,101,0.359 µg/mL,15,"decrease in concentrations within 2 hours after dosing ([1]; rat, in vivo, iv, 1 mg/kg): > 100 fold; time for which plasma concentrations were measurable after dosing ([1]; rat, in vivo, po, 5 mg/kg): 4 h"
"O=C(CS(=O)(=O)C(c1ccc(Cl)cc1)c1ccc(Cl)cc1)C(F)F [Example 8, 3-[Bis-(4-chloro-phenyl)-methanesulfonyl]-1,1-difluoro-propan-2-one]",,~43,7,,108,88,about 7 μg/mL,30 to 60,"Vd ([1]; rat, in vivo, iv, 1 mg/kg): 0.28 L/kg; clearance ([1]; rat, in vivo, iv, 1 mg/kg): 0.75 mL/min/kg"
"COC(=O)CS(=O)(=O)C(c1ccc(Cl)cc1)c1ccc(Cl)cc1 [[Bis-(4-chloro-phenyl)-methanesulfonyl]-acetic acid methyl ester, reference compound]",below the lower limit of quantitation,,,,,,,,"IC50 ([3]; Homo sapiens, THP-1, 0.5 h): 150 nM; IC50 [4]: 7320 nM"
